Data from ChEMBL document CHEMBL1201862, “PubChem BioAssay data set” (2004).
Activity calls are given as the source filed them.

Assays:
[1] = inhibitors of intracellular T. cruzi replication, confirmation, NIH3T3 host cells, beta-gal luminescence (AID 2044); assay type: functional, cell-based;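 also: intracellular parasites grown in NIH/3T3 mouse fibroblasts as host cells; luminescent beta-galactosidase reporter signal from transgenic T. cruzi replicating inside host cells; inhibitors lower the luminescence signal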
[2] = inhibitors of Trypanosoma cruzi host-cell infection, confirmation, beta-gal luminescence, NIH3T3 host cells (AID 2630); assay type: functional, cell-based; conditions: Mus musculus
[3] = T. cruzi intracellular amastigote growth inhibition, dose response, imaging, CA-I/72 strain, bovine embryo skeletal muscle, dry powder (AID 651885); assay type: functional, cell-based
Trypanosoma cruzi = assay: growth inhibition of intracellular Trypanosoma cruzi, dose response, cell-based, plate reader, dry powder, set 3 (AID 493197); assay type: functional
[4] = cytotoxicity toward NIH3T3 fibroblasts, dose response, counter-screen, cell-based, ATP luminescence, mouse fibroblasts (AID 2010); assay type: functional;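 also: cells exposed to compound for about 90 hours before reading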
[5] = Luminescence Cell-Based/Microorganism Confirmation at Dose of Inhibitors of Trypanosoma cruzi Infection. [Related pubchem assays: 1885, 1968 ]; assay type: functional
[6] = Luminescence Cell-Based Secondary HTS screen to identify cytotoxic compounds of NIH3T3 cells. [Related pubchem assays: 1885, 1968 ]; assay type: functional
[7] = cytotoxicity in NIH/3T3 mouse fibroblasts, dose response, cytotoxicity control, cell-based, mouse embryonic fibroblasts, dry powder, set 2 (AID 493247); assay type: functional; conditions: Fibroblast
[8] = T. cruzi growth inhibition in host cells, dose response, cell-based, plate reader, dry powder, set 2 (AID 652275); assay type: functional
[9] = target: G-protein coupled receptor 55 (Homo sapiens, UniProt Q9Y2T6); assay: GPR55 antagonists blocking LPI-driven arrestin recruitment, primary screen, imaging, U2OS, beta-arrestin-GFP, LPI agonist (AID 2013); assay type: functional;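 also: antagonist potency measured as reduced agonist-driven arrestin aggregation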
[10] = target: T1, Peroxisome proliferator-activated receptor gamma (Homo sapiens, UniProt P37231); assay: PPARg ligand-binding domain binders, dose response, PPARg partial agonist project, biochemical, fluorescence polarization, PolarScreen (AID 504453)
T1 sequence (P37231 whole entry): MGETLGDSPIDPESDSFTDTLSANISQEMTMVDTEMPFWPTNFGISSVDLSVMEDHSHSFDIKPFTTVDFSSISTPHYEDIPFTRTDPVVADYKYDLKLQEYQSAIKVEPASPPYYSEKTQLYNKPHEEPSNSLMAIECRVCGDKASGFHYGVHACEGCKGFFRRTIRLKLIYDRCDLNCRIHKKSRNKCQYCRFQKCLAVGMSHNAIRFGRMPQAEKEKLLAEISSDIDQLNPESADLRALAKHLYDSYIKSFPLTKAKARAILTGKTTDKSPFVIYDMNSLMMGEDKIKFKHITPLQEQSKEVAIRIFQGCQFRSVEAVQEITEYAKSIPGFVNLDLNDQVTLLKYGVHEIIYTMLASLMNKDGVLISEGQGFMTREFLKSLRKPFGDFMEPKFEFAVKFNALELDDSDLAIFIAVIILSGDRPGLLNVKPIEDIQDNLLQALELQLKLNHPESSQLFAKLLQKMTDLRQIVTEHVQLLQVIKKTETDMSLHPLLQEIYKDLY

[11] = target: T1, Peroxisome proliferator-activated receptor gamma; assay: PPARg partial agonists, dose response, cell-based, luminescence, assay provider (AID 504447); assay type: functional
[12] = target: T1, Peroxisome proliferator-activated receptor gamma; assay: PPARg ligand-binding domain binders, dose response, PPARg partial agonist project, biochemical, TR-FRET, LanthaScreen (AID 504446)
[13] = target: DNA damage-inducible transcript 3 protein (Mus musculus, UniProt P35639); assay type: functional, Cricetulus griseus
Troponin, cardiac muscle = Troponin, cardiac muscle (Homo sapiens, UniProt P19429+P45379+P63316); assay: Fluorescence-based biochemical high throughput dose response assay for activators of the calcium sensitivity of cardiac Regulated Thin Filaments (RTF). [Related pubchem assays (depositor defined):AID493008, AID493018, AID504382, AID504383]; assay type: protein-complex assay
[14] = Luminescence Cell-Based Dose Response HTS to Identify Activators of Luciferase Translation or Activity in H4 […] Cells. [Related pubchem assays: 1829 (Project Summary), 1814 (Primary HTS)]; assay type: functional
[15] = fluorescence interference artefacts, compound only, dose response, artefact control for cardiac thin filament activator project, biochemical, no RTF in test wells (AID 504697)
[16] = target: Signal transducer and activator of transcription 1-alpha/beta (Homo sapiens, UniProt P42224); assay: STAT3 inhibitors, late-stage profile, late-stage follow-up, cell-based, STAT1 panel, qPCR, cytotoxicity, panel member STAT1 Inhibition (AID 2078)
[17] = target: Signal transducer and activator of transcription 3 (Homo sapiens, UniProt P40763); assay: STAT3 inhibitors, late-stage profile, late-stage follow-up, cell-based, STAT1 panel, qPCR, cytotoxicity, panel member STAT3 Inhibition (AID 2078)
[18] = target: T2, Kappa-type opioid receptor (Homo sapiens, UniProt P41145); assay: SAR analysis of small molecule agonists of the kappa opioid receptor via a luminescent beta-arrestin assay - Set 3. [Related pubchem assays (depositor defined):AID1777, AID1785, AID1786, AID1966, AID2133, AID2136, AID2284, AID2500]; assay type: functional
[19] = target: Phosphoethanolamine/phosphocholine phosphatase (Homo sapiens, UniProt Q8TCT1); assay: SAR assay for compounds that inhibit PHOSPHO1. [Related pubchem assays (depositor defined):AID1545, AID1565, AID1574]
Phosphomannomutase 2 = Phosphomannomutase 2 (Homo sapiens, UniProt O15305); assay: Counter screen SAR assay for PMM2 inhibitors via a fluorescence intensity assay. [Related pubchem assays (depositor defined):AID1545, AID1574]
Mu-type opioid receptor [20] = target: T3, Mu-type opioid receptor (Homo sapiens, UniProt P35372); assay: MOR agonists by imaging, SAR follow-up, image-based (AID 2352); assay type: functional
[21] = target: Dual specificity protein phosphatase 3 (Homo sapiens, UniProt P51452); assay: SAR VHR1 Fluorescent Assay for In Vitro dose response studies Set 2. [Related pubchem assays (depositor defined):AID1654, AID1661, AID1878]; assay type: functional
[22] = target: T2, Kappa-type opioid receptor; assay: kappa opioid receptor blockers, cell-based, luminescence, beta-arrestin, SAR follow-up (AID 2285); assay type: functional
[23] = target: T4, Delta-type opioid receptor (Homo sapiens, UniProt P41143); assay: DOR antagonists, SAR follow-up, image-based (AID 2357); assay type: functional
[24] = target: T2, Kappa-type opioid receptor; assay: KOR agonist analogs, imaging readout, SAR follow-up, image-based (AID 2359); assay type: functional
[25] = target: T2, Kappa-type opioid receptor; assay: KOR antagonists by imaging, SAR follow-up, image-based (AID 2348); assay type: functional
[26] = target: T4, Delta-type opioid receptor; assay: DOR agonists, SAR follow-up, image-based (AID 2370); assay type: functional
[27] = target: Tyrosine-protein phosphatase non-receptor type 7 (Homo sapiens, UniProt P35236); assay: SAR analysis of chemical inhibitors of HePTP using a Fluorescent assay - Set 2. [Related pubchem assays (depositor defined):AID1059, AID1077, AID1661, AID2085, AID521]; assay type: functional
Mu-type opioid receptor [28] = target: T3, Mu-type opioid receptor; assay: MOR antagonists, SAR follow-up, image-based (AID 2420); assay type: functional;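 also: compounds added before stimulation of receptor with agonist DAMGO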
[29] = target: Intestinal-type alkaline phosphatase (Homo sapiens, UniProt P09923); assay: human intestinal alkaline phosphatase activators, dose response, biochemical, luminescence, uHTS hits (AID 463120); assay type: functional
HEK293 [30] = assay: cells; assay type: functional, cell-based; conditions: Homo sapiens
HEK293 [31] = assay: NOD2 signaling inhibitors in MDP-stimulated cells, cell-based, uHTS, luminescence (AID 2001); assay type: functional; conditions: Homo sapiens
cells [32] = assay type: functional, cell-based
HEK293 [33] = assay: cells; assay type: functional, cell-based; conditions: Homo sapiens; remark: listed apart in the source
cells [34] = assay type: functional, cell-based; remark: listed apart in the source
HEK293 [35] = assay: cells; assay type: functional, cell-based; conditions: Homo sapiens; remark: listed apart in the source
HEK293 [36] = assay: NOD1 signaling inhibitors, primary screen, cell-based, luminescence, uHTS (AID 1578); assay type: functional; conditions: Homo sapiens
[37] = target: Nucleotide-binding oligomerization domain-containing protein 2 (Homo sapiens, UniProt Q9HC29); assay: NOD2 signaling inhibitors, cell-based, luminescence, uHTS, HEK293 (AID 1566); assay type: functional
Coagulation factor XII = target: T5, Coagulation factor XII (Homo sapiens, UniProt P00748); assay: Factor XIIa Dose Response Confirmation from Single Well HTS. [Related pubchem assays (depositor defined):AID701]; assay type: functional
T5 sequence (P00748 whole entry): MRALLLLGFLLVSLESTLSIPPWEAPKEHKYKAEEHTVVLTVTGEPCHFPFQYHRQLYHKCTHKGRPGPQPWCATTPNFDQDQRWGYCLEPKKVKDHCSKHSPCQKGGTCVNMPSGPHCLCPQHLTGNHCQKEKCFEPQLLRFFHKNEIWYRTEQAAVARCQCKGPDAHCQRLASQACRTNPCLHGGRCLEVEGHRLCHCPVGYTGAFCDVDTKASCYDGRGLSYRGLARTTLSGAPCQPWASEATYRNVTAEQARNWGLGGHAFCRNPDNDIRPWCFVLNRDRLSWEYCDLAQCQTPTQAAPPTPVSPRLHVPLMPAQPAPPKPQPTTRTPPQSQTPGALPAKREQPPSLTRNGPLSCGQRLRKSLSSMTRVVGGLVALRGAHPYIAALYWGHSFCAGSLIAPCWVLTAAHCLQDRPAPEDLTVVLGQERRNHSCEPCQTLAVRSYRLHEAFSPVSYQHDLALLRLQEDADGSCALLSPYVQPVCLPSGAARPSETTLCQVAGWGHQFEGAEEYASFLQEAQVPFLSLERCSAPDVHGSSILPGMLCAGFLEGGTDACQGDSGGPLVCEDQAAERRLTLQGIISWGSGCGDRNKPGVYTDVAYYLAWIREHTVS

COc1ccc(CCN(C)C(=O)C2CCCN(Cc3ccc(OC)c(OC)c3)C2)cc1OC (stereo unspecified)
EC50 [1]: < 0.1 µM (active) | EC50 [2]: 0.192 µM (active) | IC50 [3]: > 20 µM (inactive) | AC50 (Trypanosoma cruzi): 0.26 µM (active) | EC50 [4]: > 60 µM (not active) | EC50 [5]: 0.192 µM (active) | EC50 [6]: > 195 µM (not active) | AC50 [7]: 80.4 µM (active) | AC50 [8]: 0.252 µM (active)

C=CCN1C(=O)/C(=C/Nc2ccc(Cc3ccncc3)cc2)C(=O)NC1=S
IC50 [9]: 0.543 µM (active)

Cc1ccc2nc(N3C(=O)C(O)=C(C(=O)c4ccc(C)o4)C3c3ccco3)sc2c1 (stereo unspecified)
IC50 [10]: 22 µM (active) | EC50 [11]: 18 µM (active) | IC50 [12]: 2.6 µM (active)

CCOC(=O)c1c(CN2CCOCC2)n(-c2ccccc2)c2cc(Br)c(O)cc12.Cl
Absolute IC50 (CHOP) [13]: 10 µM

N=c1oc2c3c4c(cc2cc1C(=O)Nc1ccccc1)CCCN4CCC3
EC50 (Troponin, cardiac muscle): > 0.0109 µM (active) | EC50 [14]: 8.27 µM (active) | EC50 [15]: > 0.0109 µM (active)

Fc1ccc(CC2CCN(c3ncnc4sccc34)CC2)cc1
IC50 [16]: > 55.7 µM (inactive) | IC50 [17]: 2.54 µM (active)

CCCCN(Cc1cc2cc(Cl)ccc2[nH]c1=O)C(=O)c1ccccc1
EC50 [18]: > 20 µM (inactive)

CC(C)(C)c1ccc(-n2sc3ccccc3c2=O)cc1
IC50 [19]: 54.3 µM (inactive) | IC50 (Phosphomannomutase 2): 82.5 µM (active)

O=C(NC(NC(=S)Nc1ccccc1)C(Cl)(Cl)Cl)OCc1ccccc1 (stereo unspecified)
EC50 (Mu-type opioid receptor [20]): > 32 µM (inactive) | IC50 [21]: > 100 µM (inactive) | IC50 [22]: > 10 µM (inactive) | IC50 [23]: > 32 µM (inactive) | EC50 [24]: > 32 µM (inactive) | IC50 [25]: 17.6 µM (inactive) | EC50 [26]: > 32 µM (inactive) | IC50 [27]: > 100 µM (inactive) | IC50 (Mu-type opioid receptor [28]): > 32 µM (inactive)

Cc1ccc(Cl)cc1NC(=O)C(=O)N/N=C/c1ccc2c(c1)OCO2
EC50 [29]: 29.6 µM (active)

O=C(N/N=C/c1ccccn1)c1ccc(Cl)cc1
IC50 (HEK293 [30]): > 20 µM (inactive) | IC50 (HEK293 [31]): 7.14 µM (inactive) | EC50 (cells [32]): > 350 µM (not active) | IC50 (HEK293 [33]): > 20 µM (inactive) | EC50 (cells [34]): > 350 µM (not active) | IC50 (HEK293 [35]): > 20 µM (inactive) | EC50 (HEK293 [36]): > 20 µM (inactive) | EC50 [37]: > 20 µM (inactive)

CC(/N=c1\ccccn1C(=O)Nc1cccc(C(F)(F)F)c1)c1ccco1 (stereo unspecified)
IC50 (Coagulation factor XII): > 50 µM (inactive)
